Test results as given in ChEMBL document CHEMBL1201862, “PubChem BioAssay data set” (2004).
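Protocol summary: plate cells (96-well), add compound at 5 concentrations, incubate 48 h, interpolate endpoints linearly. GI50 = concentration required for 50% inhibition of growth.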 Calls of active or inactive are those of the source. Cut-off read from the data, not from the text of the source: active = GI50 up to about 1.1 µM and inactive = higher.

Columns and labels:
Assay in all cases: NCI tumour cell line growth inhibition, 48 h
[1] = test system: 786-0
[2] = test system: A549
[3] = test system: ACHN
[4] = test system: BT-549
[5] = test system: CAKI-1
[6] = test system: CCRF-CEM
[7] = test system: COLO 205
[8] = test system: DU-145
[9] = test system: EKVX
[10] = test system: HCC 2998
[11] = test system: HCT-116
[12] = test system: HCT-15
[13] = test system: HOP-62
[14] = test system: HOP-92
[15] = test system: HT-29
[16] = test system: Hs-578T
[17] = test system: IGROV-1
[18] = test system: K562
[19] = test system: KM12
[20] = test system: LOX IMVI
[21] = test system: M14
[22] = test system: MCF7
[23] = test system: MDA-MB-231
[24] = test system: MDA-MB-435
[25] = test system: MDA-N
[26] = test system: MOLT-4
[27] = test system: Malme-3M
[28] = test system: NCI-H226
[29] = test system: NCI-H23
[30] = test system: NCI-H460
[31] = test system: NCI-H522
[32] = test system: NCI/ADR-RES
[33] = test system: OVCAR-3
[34] = test system: OVCAR-4
[35] = test system: OVCAR-5
[36] = test system: OVCAR-8
[37] = test system: PC-3
[38] = test system: RPMI-8226
[39] = test system: SF-268
[40] = test system: SF-295
[41] = test system: SF-539
[42] = test system: SK-MEL-28
[43] = test system: SK-MEL-2
[44] = test system: SK-MEL-5
[45] = test system: SK-OV-3
[46] = test system: SN12C
[47] = test system: SNB-19
[48] = test system: SNB-75
[49] = test system: SW-620
[50] = test system: T47D
[51] = test system: TK-10
[52] = test system: U-251
[53] = test system: UACC-257
[54] = test system: UACC-62
[55] = test system: UO-31

COc1ccc2c(c1)c1c(n2CCN(C)C)-c2ccccc2CC1 was tested, and the GI50 [1] was 16.1 µM (inactive), the GI50 [2] was 15.6 µM (inactive) and the GI50 [3] was 16.4 µM (inactive). For the same compound, the GI50 [4] was 16.9 µM (inactive), the GI50 [5] was 14.3 µM (inactive) and the GI50 [6] was 11.3 µM (inactive). The GI50 [7] was 12.5 µM (inactive), the GI50 [8] was 15.9 µM (inactive) and the GI50 [9] was 9.77 µM (inactive). The GI50 [10] was 18.2 µM (inactive), the GI50 [11] was 15.2 µM (inactive) and the GI50 [12] was 13.7 µM. The GI50 [13] was 16.4 µM (inactive), the GI50 [14] was 16.5 µM (inactive) and the GI50 [15] was 7.78 µM (inactive). For the same compound, the GI50 [16] was 17.6 µM (inactive), the GI50 [17] was 11.9 µM (inactive) and the GI50 [18] was 11.5 µM (inactive). The GI50 [19] was 14.4 µM (inactive), the GI50 [20] was 16.6 µM (inactive) and the GI50 [21] was 15.6 µM (inactive). The GI50 [22] was 18.3 µM (inactive), the GI50 [23] was 13.6 µM (inactive) and the GI50 [24] was 16.5 µM (inactive). The GI50 [25] was 16 µM (inactive), the GI50 [26] was 13.2 µM (inactive) and the GI50 [27] was 20.3 µM (inactive). The GI50 [28] was 12.2 µM (inactive), the GI50 [29] was 18 µM (inactive) and the GI50 [30] was 16.7 µM (inactive). The GI50 [31] was 18.5 µM (inactive), the GI50 [32] was 16.8 µM (inactive) and the GI50 [33] was 16.6 µM (inactive). For the same compound, the GI50 [34] was 16.9 µM (inactive), the GI50 [35] was 18.2 µM (inactive) and the GI50 [36] was 16.9 µM (inactive). For the same compound, the GI50 [37] was 12.6 µM (inactive), the GI50 [38] was 13.7 µM (inactive) and the GI50 [39] was 18.1 µM (inactive). The GI50 [40] was 16.9 µM (inactive), the GI50 [41] was 14 µM (inactive) and the GI50 [42] was 15 µM (inactive). For the same compound, the GI50 [43] was 16.1 µM (inactive), the GI50 [44] was 14.9 µM (inactive) and the GI50 [45] was 20.2 µM (inactive). For the same compound, the GI50 [46] was 14.1 µM (inactive), the GI50 [47] was 15.7 µM (inactive) and the GI50 [48] was 13.7 µM (inactive). The GI50 [49] was 16.8 µM (inactive), the GI50 [50] was 14.5 µM (inactive) and the GI50 [51] was 15.9 µM (inactive). For the same compound, the GI50 [52] was 13.1 µM (inactive), the GI50 [53] was 16.3 µM (inactive) and the GI50 [54] was 14.5 µM (inactive). For the same compound, the GI50 [55] was 13.5 µM (inactive).
